According to the NIST ThermoML archive (doi:10.1016/j.jct.2009.07.022):
“And” between values parts separate entries of the source, which are not always exact repeats. Equal entries are not always repeated. ± gives the expanded uncertainty stated by the source.

Experiments:
[1] = molar enthalpy of transition or fusion; settings: 298.15 K; Crystal; Clausius-Clapeyron Eq with Heat Capacity
[2] = Crystal, Calculated from knudsen effusion weight loss

c1ccc(-c2cccc(-c3ccccc3)c2-c2ccccc2)cc1 [1,2,3-triphenylbenzene]
Settings	molar enthalpy of transition or fusion [kJ/mol]
[1]	134 ± 2.2

[2]
Settings	vapor or sublimation pressure
373.15 K	0.0001 ± 5e-06 kPa and 9.85e-05 ± 4.9e-06 kPa
375.03 K	0.000124 ± 6e-06 kPa and 0.00012 ± 6e-06 kPa
377.27 K	0.00016 ± 8e-06 kPa and 0.000158 ± 8e-06 kPa
379.15 K	0.0002 ± 1e-05 kPa and 0.000199 ± 1e-05 kPa and 0.000195 ± 1e-05 kPa
381.02 K	0.000244 ± 1.2e-05 kPa and 0.000247 ± 1.2e-05 kPa and 0.000237 ± 1.2e-05 kPa
383.27 K	0.000316 ± 1.6e-05 kPa and 0.000305 ± 1.5e-05 kPa and 0.000301 ± 1.5e-05 kPa
385.27 K	0.000384 ± 1.9e-05 kPa and 0.000369 ± 1.8e-05 kPa and 0.000365 ± 1.8e-05 kPa
387.12 K	0.000458 ± 2.3e-05 kPa and 0.00046 ± 2.3e-05 kPa
389.05 K	0.000548 ± 2.7e-05 kPa and 0.000555 ± 2.8e-05 kPa and 0.000543 ± 2.7e-05 kPa
391.28 K	0.000733 ± 3.7e-05 kPa and 0.00073 ± 3.7e-05 kPa and 0.000715 ± 3.6e-05 kPa
393.1 K	0.000871 ± 4.4e-05 kPa and 0.000865 ± 4.3e-05 kPa and 0.000872 ± 4.4e-05 kPa
394.98 K	0.001033 ± 0.0001 kPa and 0.001062 ± 0.00011 kPa and 0.001027 ± 0.0001 kPa
